These results are taken from PMC8922281, “Synthesis and In Vitro Biological Evaluation of Quinolinyl Pyrimidines Targeting Type II NADH-Dehydrogenase (NDH-2)” (ACS Infectious Diseases, 2022).

The test system of the test is A. baumannii ATCC19606 resistant mutant. Briefly: microbe, parasite or virus in culture. The format is cell-based.

Converted amounts (≈) assume the structure as drawn.

For `CCOc1cc(Nc2ccc3nc(-c4ccc(F)cc4)cc(N)c3c2)nc(N)n1` [Compound 9a, N^6-(2-Amino-6-ethoxypyrimidin-4-yl)-2-(4-fluorophenyl)quinoline-4,6-diamine], the MIC (Acinetobacter baumannii, ATCC19606, read-out: MIC mutant) stood at 4 µg/mL (≈ 10.2 µM). Besides, the “fold increase of MIC” value (mutant CH5080 vs parent A. baumannii ATCC19606) was determined as 2.
